We go through 16 compounds from article PMC9145393, “Design, Semisynthesis, and Estrogenic Activity of Lignan Derivatives from Natural Dibenzylbutyrolactones” (Pharmaceuticals, 2022).

For assay [1], the system named is ER-dependent transcriptional activity in T47D-KBluc cells. Put plainly: ERE-luciferase reporter in T47D-KBluc cells, agonist assessment (absence of E2). The format is cell-based, human. Particulars: for Emax: Homo sapiens, read-out: E/Emax (%) VEH; for E/Emax (%) VEH: lignans 5 μM, absence of E2 (VEH), relative to Emax induced by 0.1 nM E2, Mean ± SEM. Further details: Emax: dose or concentration left out as unconfirmed. How it is done:
(§1) Lactols (5) and (6) were tested as a mixture of the two epimers obtained.
(§2) Chemical screening was carried out by using T47D-KBluc cells, an ER+ BC cell line that is stably transfected with the pGL2.TATA.Inr.Luc.neo containing three ER-responsive elements (ERE). The T47D-KBluc cells were maintained in standard growth media as detailed above. Dosing media was further modified by reduction of DCC-FBS to 5%. […] Chemical screening was also carried out by using the triple negative BC cell line MDA-kb2 cells that stably expresses pMMTV.neo.luc gene, an AR- and GR-responsive reporter gene. […] The T47D-KBluc cells or the MDA-kb2 cells were seeded at 100,000 cells per well in 24-well plates (Nunclon, Sigma-Aldrich, Darmstadt, Germany ) and allowed to attach overnight. Then, the media was replaced with 1 mL/well of dosing media and test compounds incubated 24 h. Then, the cells were harvested in 100 µL passive lysis buffer (Promega, Madison, WI, USA) per well. The relative light units (RLUs), which correspond to luciferase activity from each sample, were measured by using Luciferase Assay Reagent (Promega) in a Clarity luminescence microplate reader (BIOTEK, Winooski, VT, USA). The RLUs from each sample were normalized by protein concentration and converted to fold induction with respect to vehicle-treated control. […] Then, the percent of efficacy (E) of each tested compound, as compared with Emax, was calculated. […] Data are expressed as mean ± SEM of triplicate independent experiments, where each treatment was assayed in triplicate. […] Duplicate plates were dosed in parallel to control the effects of compounds on cell viability. The protein concentration was measured in cell lysate using colorimetric assay reagent (BioRad, CA, USA).
(In general: Reporter assays use an easily measured gene product as a stand-in for the process of interest.)

For another assay, the target named is T1, rhERα-LBD (Homo sapiens, UniProt P03372).
T1 sequence (P03372 311-547 limits assumed): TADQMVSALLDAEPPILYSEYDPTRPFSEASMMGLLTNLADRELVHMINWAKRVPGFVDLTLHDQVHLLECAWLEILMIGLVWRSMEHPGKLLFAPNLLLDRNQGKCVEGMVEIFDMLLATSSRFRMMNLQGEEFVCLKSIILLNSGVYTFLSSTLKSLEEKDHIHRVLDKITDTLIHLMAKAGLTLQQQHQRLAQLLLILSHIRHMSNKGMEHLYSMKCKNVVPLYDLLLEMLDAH
Put plainly: LanthaScreen TR-FRET competitive binding assay. The conditions noted are these: 10-point competition curves, Mean ± SE. How it is done:
Next, the binding of lignan derivatives to the LBD of rhERα was analyzed by using time-resolved fluorescence resonance energy transfer (TR-FRET) competitive binding assay. […] The LanthaScreen^TM TR-FRET Nuclear Receptor (NR) binding assay (SelectScreen^TM Profiling Service, Life Technologies, Carlsbad, CA, USA) was used for screening of potential binding of lignan derivatives to human ERα [33]. Briefly, the kit uses the recombinant human ERα (rhERα) protein and a tight binding, selective fluorescent ligand, Fluormone^TM tracer. […] The rhERα protein and the tracer form rhERα/tracer complex, resulting in a high FP value. […] Dose-response competition curves were fitted by nonlinear regression analyses in the GraphPad software 8 (GraphPad Software, San Diego, CA, USA) to obtain IC50 values.
Data are expressed as mean ± SEM for from at least three independent experiments, where each concentration is tested in triplicate.

The next assay deals with T47D cells. Put plainly: MTT cell viability, E2-depleted T47D cells. Particulars: 10 μM, 24 h, absence of E2. The format is cell-based, human. How it is done: The effects of lignan derivatives were evaluated on human ER+ BC cells.
Cells were maintained in RPMI (Lonza, Basel, Switzerland) growth media, without phenol red, supplemented with 10% fetal bovine serum (FBS) (Lonza), 2 mM glutamine, 10 mM HEPES, 1 mM sodium pyruvate, 100 UI/mL penicillin and 100 μg/mL streptomycin. Cells were growth in a humidified incubator with 5% CO2 at 37 °C.
The cells were maintained in standard growth media as detailed above and seeded at exponential growth density (6000 cells per well) in 96-well plates (BD Falcon, France). The cells were then treated with vehicle or tests compounds (from 0.01 μM to 10 μM) for 24–72 h. The mitochondrial metabolization of the tetrazolium salt 3-(4,5-methyltiazol-2yl-)-2,5diphenyl-tetrazolium bromide] (MTT) (Applichen, Darmstadt, Germany) was used as an indicator of cell viability.
Figure 6 Effects of lignans on ER+ breast cancer cell viability. […] Then, the mitochondrial metabolization of MTT was used as an indicator of cell viability, as described in the Material and Methods. Data are expressed as mean ± SEM for at least three independent experiments, where each concentration is tested in triplicate. * p < 0.05, ** p < 0.01, and *** p < 0.001 versus VEH-treated cells.

Assay [2] deals with E2-induced ERE-luciferase activity in T47D-KBluc cells. Put plainly: ERE-luciferase reporter in T47D-KBluc cells, antagonist assessment (presence of 0.1 nM E2). The format is cell-based. The conditions noted are these: Homo sapiens. How it is done:
as §1
as §2, with “Then, the media was replaced with 1 mL/well of dosing media and test compounds incubated 24 h.” left out

The mark [3] stands for this setting: read-out: IC50 (inhibition of Fluormone tracer binding to rhERα).
Setting [4] is: read-out: IC50 (reduction of E2-induced Emax), lignans 1 μM to 10 μM, 1 h before 0.1 nM E2 for 18 h, predicted by nonlinear regression, Mean ± SE.

“And” between values parts separate entries of the source, which are not always exact repeats. Equal entries are not always repeated. Where two headings read alike, the source gives them in different places.

`COc1ccc(C[C@H]2C(O)OC[C@@H]2Cc2ccc3c(c2)OCO3)cc1OC` (mixture of isomers) [Compound 5, (3R,4R)-4-(Benzo[d][1,3]dioxol-5-ylmethyl)-3-(3,4-dimethoxybenzyl) Tetrahydro Furan-2-ol]: in assay [1], the Emax was determined as 22.7 ± 4.26% and the “E/Emax (%) VEH” value is “weak estrogenic activity”. Moreover, the IC50 at rhERα-LBD (setting [3]) came to 3.24 ± 2.03 µM.
Regarding `COc1ccc(C[C@H]2COC(O)[C@@H]2Cc2ccc(OC)c(OC)c2)cc1OC` (mixture of isomers) [Compound 6, (3R,4R)-3,4-Bis(3,4-dimethoxybenzyl)tetrahydrofuran-2-ol], in the assay with T47D cells, the “reduction of cell viability” value amounted to 16.6%. Besides, the Emax in assay [1] came to 5.86 ± 0.84%.
As for `COc1ccc(C[C@H]2C(=O)OC[C@@H]2Cc2ccc3c(c2)OCO3)cc1OC` [Compound 1, (−)-Bursehernin], the “reduction of cell viability” value in the assay with T47D cells was “reduced cell viability”. The Emax in assay [1] turned out to be 17.6 ± 5.4%. Further, the IC50 was below 20 µM in assay [2] (lignans 1 μM to 10 μM, 1 h before 0.1 nM E2 for 18 h, predicted by nonlinear regression, Mean ± SE, read-out: IC50 (reduction of E2-induced Emax)) and 0.39 ± 0.19 µM on rhERα-LBD (IC50 (inhibition of Fluormone tracer binding to rhERα)).
`O=C1OC[C@H](Cc2ccc(O)c(O)c2)[C@H]1Cc1ccc(O)c(O)c1` [Compound 3, (3R,4R)-3,4-Bis(3,4-dihydroxybenzyl)dihydrofuran-2(3H)-one]: in assay [1], the Emax amounted to 24.5 ± 6.53% and the “E/Emax (%) VEH” value is listed as “weak estrogenic activity”. Also, at rhERα-LBD (setting [3]), the IC50 was found to be 0.6 ± 0.11 µM.
On to `COc1ccc(C[C@H]2C(=O)OC[C@@H]2Cc2ccc(O)c(O)c2)cc1OC` [Compound 4, (3R,4R)-4-(3,4-Dihydroxybenzyl)-3-(3,4-dimethoxybenzyl)dihydrofuran-2(3H)-one], for which, in assay [1], the Emax was found to be 15.8 ± 2.15%. Further, the IC50 in assay [2] (setting [4]) is above 10 µM; at rhERα-LBD (setting [3]), 6 µM and 6.04 µM.
As for `CC/C(=C(\c1ccc(O)cc1)c1ccc(OCCN(C)C)cc1)c1ccccc1` [Compound 4-OHTAM, 4-hydroxytamoxifen, reference compound], in assay [2] (read-out: IC50 (abolition of E2 effect by coincubation), antiestrogen coincubated with E2), the IC50 was determined as 0.38 ± 0.009 µM.
With `COc1ccc(C[C@@H](CO)[C@H](CO)Cc2ccc3c(c2)OCO3)cc1OC` [Compound 7, (2R,3R)-2-(Benzo[d][1,3]dioxol-5-ylmethyl)-3-(3,4-dimethoxybenzyl)butane-1,4-diol], the Emax in assay [1] is 13.1 ± 2.58%. In addition, the IC50 on rhERα-LBD (setting [3]) was determined as 4 ± 1.6 µM.
Take `COc1ccc(C[C@@H](CO)[C@H](CO)Cc2ccc(OC)c(OC)c2)cc1OC` [Compound 8, (2R,3R)-2,3-Bis(3,4-dimethoxybenzyl)butane-1,4-diol]: the “reduction of cell viability” value in the assay with T47D cells is recorded as “reduced cell viability”. Further, the Emax in assay [1] came out at 9.41 ± 1.88%.
Regarding `COc1ccc(C[C@H]2COC[C@@H]2Cc2ccc3c(c2)OCO3)cc1OC` [Compound 9], the “reduction of cell viability” value in the assay with T47D cells worked out at 55.6%. Moreover, in assay [1], the Emax was 23.8 ± 6.34% and the “E/Emax (%) VEH” value is reported as “weak estrogenic activity”. The IC50 at rhERα-LBD (setting [3]) is 8 µM and 7.65 µM.
`COc1ccc(C[C@H]2COC[C@@H]2Cc2ccc(OC)c(OC)c2)cc1OC` [Compound 10, (3R,4R)-3,4-Bis(3,4-dimethoxybenzyl)tetrahydrofuran]: in assay [1], the Emax was 3.91 ± 1.55%.
Consider `COc1ccc(C[C@H]2COC[C@@H]2Cc2ccc(O)c(O)c2)cc1OC` [Compound 11], for which the “reduction of cell viability” value with T47D cells is “reduced cell viability”. In assay [1], the Emax was 12.1 ± 4.33% and the “E/Emax (%) VEH” value was “weak estrogenic activity”. Further, in assay [2] (setting [4]), the IC50 is below 20 µM. For the same compound, on rhERα-LBD (setting [3]), the IC50 came out at 0.5 ± 0.17 µM.
Turning to `COc1ccc(C[C@@H](COS(C)(=O)=O)[C@H](COS(C)(=O)=O)Cc2ccc3c(c2)OCO3)cc1OC` [Compound 12, (2R,3R)-2-(Benzo[d][1,3]dioxol-5-ylmethyl)-3-(3,4-dimethoxybenzyl)butane-1,4-diyl Dimethanesulfonate], the “reduction of cell viability” value with T47D cells was “reduced cell viability”. Also, in assay [1], the Emax was determined as 22.2 ± 3.89% and the “E/Emax (%) VEH” value is “weak estrogenic activity”.
Take `COc1ccc(C[C@@H](C)[C@H](C)Cc2ccc3c(c2)OCO3)cc1OC` [Compound 13, 5-((2R,3R)-4-(3,4-Dimethoxyphenyl)-2,3-dimethylbutyl)benzo[d][1,3]dioxole]: the “reduction of cell viability” value in the assay on T47D cells is listed as “reduced cell viability”. In addition, the Emax in assay [1] turned out to be 16.7 ± 3.37%. In addition, at rhERα-LBD (setting [3]), the IC50 stood at 5.02 ± 1.54 µM.
Take `COc1cc2c(cc1OC)-c1cc(O)c(O)cc1C[C@H]1COC(=O)[C@@H]1C2` [Compound 15, (3aR,13aR)-6,7-Dihydroxy-10,11-dimethoxy-3a,4,13,13a-tetrahydro Dibenzo [4,5:6,7]Cycloocta [1,2-c]Furan-1(3H)-one]: the Emax in assay [1] turned out to be 15.6 ± 5.66%.
For `O=C1OC[C@@H]2Cc3cc(O)c(O)cc3-c3cc(O)c(O)cc3C[C@@H]12` [Compound 16, (3aR,13aR)-6,7,10,11-Tetrahydroxy-3a,4,13,13a-tetrahydrodibenzo [4,5:6,7] Cycloocta [1,2-c]Furan-1(3H)-One], the Emax in assay [1] worked out at 11.3 ± 3.47%.
The same measure, in the same setting: as for `C[C@]12CC[C@@H]3c4ccc(O)cc4CC[C@H]3[C@@H]1CC[C@@H]2O` [Compound E2, 17β-estradiol, reference compound], the figure is 100 ± 11.3%.

One may read the IC50 as the concentration at which inhibition is half-maximal.
